Drawing on ChEMBL document CHEMBL1148797, “Structure-activity relationships in the binding of chemically derivatized CD4 to gp120 from human immunodeficiency virus” (J Med Chem, 2007), this text covers IC50 for two compounds.

This experiment is described as follows: Inhibition of wild type HIV YU2 gp120 to CD4 binding. Also noted: species or system Human immunodeficiency virus.

Structures are written as SMILES.

`O=C(O)c1cc(SSc2ccc([N+](=O)[O-])c(C(=O)O)c2)ccc1[N+](=O)[O-]`: the IC50 (in general, the midpoint of a concentration-inhibition curve) stood at 3.58 µM.

As for `CCN1C(=O)C=CC1=O` [N-ETHYLMALEIMIDE], the IC50 turned out to be 3.22 µM.
